Values quoted from earlier work as cited in PMC8008885 (Journal of Enzyme Inhibition and Medicinal Chemistry, 2021).

Tested on: HD transgenic mice
Conditions: cited from earlier work

Compound | H3K9 trimethylation | SETDB1 gene expression | behaviour and neuropathological phenotype | neuroprotective effects by suppressing elevated SETDB1 and H3K9me3 level
NCCSSCCN [cystamine] | reduced | down-regulates | improved | 
COC(=O)[C@@H]1c2cc3c(c(O)c2[C@@H](O[C@@H]2O[C@@H](C)[C@H](OC)[C@@](C)(OC)[C@H]2OC)C[C@]1(C)O)C(=O)c1c(O)cc2c(c1C3=O)O[C@@H]1O[C@@]2(C)[C@H](O)[C@@H](N(C)C)[C@@H]1O [nogalamycin] |  |  |  | improved neuroprotective effects
mithramycin | reduced | down-regulates | improved | 
